Where “and” joins values, the source holds several entries; their conditions need not be identical. Equal entries are not always repeated.
Legend:
[1] = molecular target: T1, serotonin transporters (SERT) (Homo sapiens, UniProt P31645); assay: PET receptor occupancy at SERT, tracer 11C-MADAM; type: in vivo; details: for SERT RO%: healthy males
T1 construct: from tissue; host or cells: brain (striatum, thalamus) of healthy male volunteers, in vivo PET
Description: (§1) The PET study was a part of a strategy in previous clinical development of the compound of formula I to evaluate in healthy male volunteers with respect to safety, tolerability and pharmacokinetics as well as DAT and SERT occupancy.
(§2) The relationship between plasma the compound of formula I concentration and SERT occupancies, using the individual values, is presented in FIG. 8 and FIG. 9. The numeric values for the individual SERT and […] occupancy and the corresponding plasma concentrations are tabulated in Example 12.
(§3) Striatal receptor occupancy at dopamine transporters (DAT) and serotonin transporters (SERT) with plasma concentrations of Formula I at the midpoint time of the post dosing PET (positron emission tomography) scans (T=4 and 24) after once-a-day multiple doses of 3-60 mg and 10-60 mg for SERT and DAT healthy male cohorts, respectively (Tables below, RO stands for receptor occupancy). Post dosing PET scans were conducted at day 10 (4 h post last dose) and day 14 (24 h post last dose) assuming steady state conditions, using the specific DAT and SERT tracers ^11 C-PE2I and ^11 C-MADAM, respectively. For 45 mg and 60 mg cohorts, there was titration by administration of 30 mg for 3 days and then from day 4 the specified dose. Representative reports on using these two tracers are Learned-Coughlin SM et al, Biol Psychiatry.2003, 54(8):800-5; Jucaite A et al, Eur J Nucl Med Mol Imaging. 2006, 33(6):657-68; and Lundberg J et al, Int J Neuropsychopharmacol. 2007, 10(6):777-85.

[2] = molecular target: T2, Transporter, Dopamine (DAT) (Homo sapiens, UniProt Q01959); assay: Radioligand binding, Transporter, Dopamine (DAT) (Eurofin Discovery 220320); details: 100 nM compound
T2 construct: host or cells: CHO-S cells
T2 sequence (Q01959 whole entry): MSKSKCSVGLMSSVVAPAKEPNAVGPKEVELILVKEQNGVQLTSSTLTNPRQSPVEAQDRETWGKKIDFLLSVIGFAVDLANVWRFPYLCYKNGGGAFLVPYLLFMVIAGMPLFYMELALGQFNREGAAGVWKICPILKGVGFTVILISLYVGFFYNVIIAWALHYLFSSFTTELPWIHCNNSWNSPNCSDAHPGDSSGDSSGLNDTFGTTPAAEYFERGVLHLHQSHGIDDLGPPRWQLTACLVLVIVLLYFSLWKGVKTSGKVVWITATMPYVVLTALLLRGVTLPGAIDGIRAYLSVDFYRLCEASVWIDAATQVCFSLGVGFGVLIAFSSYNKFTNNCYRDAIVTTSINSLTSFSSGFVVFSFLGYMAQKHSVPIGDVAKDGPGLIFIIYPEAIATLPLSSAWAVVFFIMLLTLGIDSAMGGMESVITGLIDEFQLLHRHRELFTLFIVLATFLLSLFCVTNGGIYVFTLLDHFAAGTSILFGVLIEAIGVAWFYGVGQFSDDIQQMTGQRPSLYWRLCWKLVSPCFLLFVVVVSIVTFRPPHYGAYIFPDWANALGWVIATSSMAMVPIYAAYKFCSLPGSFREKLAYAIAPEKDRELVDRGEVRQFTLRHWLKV

[3] = molecular target: T3, dopamine transporters (DAT) (Homo sapiens, UniProt Q01959); assay: PET striatal receptor occupancy at DAT, tracer 11C-PE2I; type: in vivo; details: following multiple doses of 60 mg, PET study in healthy males
T3 construct: from tissue; host or cells: striatum of healthy male volunteers, in vivo PET
T3 sequence (Q01959 whole entry): as above
Description: as §1, §2
as §3, with “Representative reports on using these two tracers are Learned-Coughlin SM et al, Biol Psychiatry.2003, 54(8):800-5; Jucaite A et al, Eur J Nucl Med Mol Imaging. 2006, 33(6):657-68; and Lundberg J et al, Int J Neuropsychopharmacol. 2007, 10(6):777-85.” left out

[4] = molecular target: T4, Transporter, Norepinephrine (NET) (Homo sapiens, UniProt P23975); assay: Radioligand binding, Transporter, Norepinephrine (NET) (Eurofin Discovery 204410); details: 100 nM compound
T4 construct: host or cells: MDCK cells
T4 sequence (P23975 whole entry): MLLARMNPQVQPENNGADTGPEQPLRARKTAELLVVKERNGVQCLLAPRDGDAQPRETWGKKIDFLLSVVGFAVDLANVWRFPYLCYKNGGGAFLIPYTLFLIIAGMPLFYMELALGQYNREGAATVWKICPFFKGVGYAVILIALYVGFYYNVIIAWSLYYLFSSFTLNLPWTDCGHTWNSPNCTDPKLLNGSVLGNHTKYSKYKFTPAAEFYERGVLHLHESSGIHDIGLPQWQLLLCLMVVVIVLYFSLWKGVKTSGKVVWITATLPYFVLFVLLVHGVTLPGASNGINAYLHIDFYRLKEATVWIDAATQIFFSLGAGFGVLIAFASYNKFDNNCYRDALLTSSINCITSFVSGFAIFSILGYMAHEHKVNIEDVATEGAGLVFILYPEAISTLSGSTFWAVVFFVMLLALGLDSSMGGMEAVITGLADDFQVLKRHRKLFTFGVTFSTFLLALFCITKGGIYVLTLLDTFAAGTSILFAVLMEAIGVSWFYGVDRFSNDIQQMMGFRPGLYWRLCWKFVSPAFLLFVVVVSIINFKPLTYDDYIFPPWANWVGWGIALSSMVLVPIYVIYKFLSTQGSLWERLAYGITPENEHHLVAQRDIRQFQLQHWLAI

[5] = 14-day once-a-day oral multiple ascending dose PK study; type: in vivo, human; set-up: AUC: unit not given here
Description: Tabulated, day-14 PK data (Cmax, Ctrough and AUC) for healthy humans in a 14-day, once-a-day oral dosing, multiple ascending dose study of compound of Formula I.

[6] = Plasma concentrations at midpoint time of post dosing PET scans; type: in vivo, human; details: healthy males
Protocol: (§4) A LC-MS/MS method was developed and validated for the quantitation of Formula I in 0.250 mL of human EDTA plasma in a total of 7 runs, out of which 1 run was rejected. The method utilized stable labeled Formula I as an internal standard. After the addition of the internal standard (equivalent to 285.4 ng/mL in human EDTA plasma) and 0.250 mL of each quality control (QC) sample and calibration standard, 0.525 mL of methyl t-butyl ether (MTBE) was added to the 96-well sample tubes. The organic layer was removed and evaporated to dryness using a liquid-liquid extraction (LLE). The residue was reconstituted and injected into the LC-MS/MS system. Chromatographic separation was achieved through gradient elution on an Acquity UPLC, BEH Shield RP18™, 50 × 2.1 mm, 1.7 µm particle size column. The mobile phase contained water, acetonitrile, ammonium formate, and formic acid. Detection was accomplished using a Sciex API 4000 tandem mass spectrometer in positive ion electrospray SRM mode. The standard curves, which ranged from 1.00 to 1000 ng/mL for Formula I, were fitted to a ⅟x2 weighted linear regression model. The intra-assay precisions, based on four levels of analytical QCs (low, mid, GM, and high), were within 4.2% CV and inter-assay precisions were within 7.2% CV for the analyte. The assay accuracy, expressed as %DEV, was within 6.4% of the nominal concentration values for the analyte. […] The LLOQ response ratio, when compared to the QC0 response ratio, was ≥ 5 in all matrix lots. The analyte was stable in human EDTA plasma for at least 24 h at room temperature, for at least 14 days at -20° C., and following at least 3 freeze- thaw cycles. The processed samples were stable for 72 hours (h) at room temperature.
as §3

[7] = Population PK model (3-compartment) on human PK data; details: healthy volunteers, 3-compartment population PK model
Description: In alternative embodiments, provided are pharmacokinetic modeling and simulation methods for Formula I, comprising using human PK data, as described sequentially in FIG. 25 to FIG. 29. A 3-compartment model best described the human PK data. Between-patient variability in healthy volunteers were 20.2%.

[8] = Stability in human EDTA plasma (LC-MS/MS validation); type: in vitro ADME
Protocol: as §4

T1 sequence (P31645 whole entry): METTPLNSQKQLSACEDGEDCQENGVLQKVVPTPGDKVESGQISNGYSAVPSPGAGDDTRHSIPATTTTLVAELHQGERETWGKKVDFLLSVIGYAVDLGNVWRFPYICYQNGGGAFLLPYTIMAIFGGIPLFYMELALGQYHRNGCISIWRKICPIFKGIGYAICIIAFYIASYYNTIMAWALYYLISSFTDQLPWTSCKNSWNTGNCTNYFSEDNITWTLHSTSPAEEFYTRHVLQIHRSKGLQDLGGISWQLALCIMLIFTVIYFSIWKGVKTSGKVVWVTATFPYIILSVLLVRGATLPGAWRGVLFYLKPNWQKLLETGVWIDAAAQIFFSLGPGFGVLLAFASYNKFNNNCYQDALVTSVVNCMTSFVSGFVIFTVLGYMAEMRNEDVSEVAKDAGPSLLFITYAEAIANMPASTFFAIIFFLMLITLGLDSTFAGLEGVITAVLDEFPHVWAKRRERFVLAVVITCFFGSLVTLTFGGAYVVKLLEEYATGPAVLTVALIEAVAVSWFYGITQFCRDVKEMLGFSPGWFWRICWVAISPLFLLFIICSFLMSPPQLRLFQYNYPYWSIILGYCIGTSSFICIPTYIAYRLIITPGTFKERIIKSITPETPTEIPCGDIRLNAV

Clc1ccc(C2CNCc3cc(-c4ccc5ncnn5c4)ccc32)cc1Cl (stereo not drawn) [Formula I, 7-([1,2,4]triazolo[1,5-a]pyridin-6-yl)-4-(3,4-dichlorophenyl)-1,2,3,4-tetrahydroisoquinoline]
SERT RO% ([1]; 10 mg once-a-day, day 10, 4 h post last dose): 53% and 52% | SERT RO% ([1]; 10 mg once-a-day, day 14, 24 h post last dose): 47% and 48% and 51% | SERT RO% ([1]; 30 mg once-a-day, day 10, 4 h post last dose): 71% and 72% and 74% | SERT RO% ([1]; 30 mg once-a-day, day 14, 24 h post last dose): 69% and 66% and 67% | SERT RO% ([1]; 45 mg once-a-day, day 10, 4 h post last dose): 73% and 74% and 75% | SERT RO% ([1]; 45 mg once-a-day, day 14, 24 h post last dose): 73% and 75% and 78% | SERT RO% ([1]; 60 mg once-a-day, day 10, 4 h post last dose): 70% and 61% and 76% | SERT RO% ([1]; 60 mg once-a-day, day 14, 24 h post last dose): 76% and 72% and 77% | SERT occupancy ([1]; multiple doses of 30-60 mg at steady state, healthy male volunteers): 65-75% | inhibition at 0.1 µM [2]: 92% | DAT occupancies [3]: ≤ 60% | DAT occupancies ([3]; listed as formula I): up to 60% | inhibition at 0.1 µM [4]: 84% | Formula I plasma concentration (ng/ml), Cmax ([5]; healthy person alpha, 3 mg daily oral, day 14, Cmax (blood draw 1-3 h)): 64 ng/mL and 67 ng/mL and 63 ng/mL and 77 ng/mL and 74 ng/mL | Formula I plasma concentration ([5]; healthy person alpha, 3 mg daily oral, day 14, blood draw 0 h): 36 ng/mL and 40 ng/mL and 31 ng/mL and 51 ng/mL and 44 ng/mL | Formula I plasma concentration ([5]; healthy person alpha, 3 mg daily oral, day 14, blood draw about 23-24 h): 38 ng/mL and 42 ng/mL and 34 ng/mL and 48 ng/mL and 50 ng/mL | AUC ([5]; healthy person alpha, 3 mg daily oral, day 14, printed in row of 23-24 h blood draw): 369 and 414 and 338 and 525 and 439 and 374 | Formula I plasma concentration (ng/ml), Cmax ([5]; healthy person alpha, 10 mg daily oral, day 14, Cmax (blood draw 1-3 h)): 249 ng/mL and 243 ng/mL and 285 ng/mL and 259 ng/mL and 242 ng/mL | Formula I plasma concentration ([5]; healthy person alpha, 10 mg daily oral, day 14, blood draw 0 h): 127 ng/mL and 134 ng/mL and 183 ng/mL and 155 ng/mL and 147 ng/mL | Formula I plasma concentration ([5]; healthy person alpha, 10 mg daily oral, day 14, blood draw about 23-24 h): 130 ng/mL and 140 ng/mL and 138 ng/mL and 178 ng/mL and 160 ng/mL and 162 ng/mL | AUC ([5]; healthy person alpha, 10 mg daily oral, day 14, printed in row of 23-24 h blood draw): 1263 and 1447 and 1302 and 1925 and 1884 and 1985 | Formula I plasma concentration (ng/ml), Cmax ([5]; healthy person alpha, 45 mg daily oral, day 14, Cmax (blood draw 1-2 h)): 1570 ng/mL and 1394 ng/mL and 1579 ng/mL and 1348 ng/mL and 1808 ng/mL | Formula I plasma concentration ([5]; healthy person alpha, 45 mg daily oral, day 14, blood draw 0 h): 866 ng/mL and 695 ng/mL and 862 ng/mL and 791 ng/mL and 957 ng/mL | Formula I plasma concentration ([5]; healthy person alpha, 45 mg daily oral, day 14, blood draw 23 h): 890 ng/mL and 693 ng/mL and 941 ng/mL and 779 ng/mL and 924 ng/mL | AUC ([5]; healthy person alpha, 45 mg daily oral, day 14, printed in row of 23 h blood draw): 6276 and 8418 and 6879 and 8712 and 8687 and 9833 | Formula I plasma concentration (ng/ml), Cmax ([5]; healthy person beta, 45 mg daily oral, day 14, Cmax (blood draw 1-3 h)): 1465 ng/mL and 1198 ng/mL and 1313 ng/mL and 1713 ng/mL and 2112 ng/mL | Formula I plasma concentration ([5]; healthy person beta, 45 mg daily oral, day 14, blood draw 0 h): 832 ng/mL and 732 ng/mL and 714 ng/mL and 973 ng/mL and 1274 ng/mL | Formula I plasma concentration ([5]; healthy person beta, 45 mg daily oral, day 14, blood draw about 24 h): 929 ng/mL and 649 ng/mL and 749 ng/mL and 1033 ng/mL and 1249 ng/mL | AUC ([5]; healthy person beta, 45 mg daily oral, day 14, printed in row of 24 h blood draw): 10113 and 9936 and 6959 and 8066 and 11276 and 12977 | Formula I plasma concentration ([6]; DAT cohort, 10 mg once-a-day, day 10, 4 h): 214 ng/mL and 173 ng/mL | Formula I plasma concentration ([6]; DAT cohort, 10 mg once-a-day, day 14, 24 h): 149 ng/mL and 147 ng/mL | Formula I plasma concentration ([6]; DAT cohort, 45 mg once-a-day, day 10, 4 h): 924 ng/mL and 905 ng/mL | Formula I plasma concentration ([6]; DAT cohort, 45 mg once-a-day, day 14, 24 h): 668 ng/mL and 673 ng/mL | Formula I plasma concentration ([6]; DAT cohort, 60 mg once-a-day, day 10, 4 h): 1263 ng/mL | Formula I plasma concentration ([6]; DAT cohort, 60 mg once-a-day, day 14, 24 h): 991 ng/mL | Formula I plasma concentration ([6]; SERT cohort, 3 mg once-a-day, day 10, 4 h): 64 ng/mL and 63 ng/mL | Formula I plasma concentration ([6]; SERT cohort, 3 mg once-a-day, day 14, 24 h): 45 ng/mL and 42 ng/mL | Formula I plasma concentration ([6]; SERT cohort, 10 mg once-a-day, day 10, 4 h): 184 ng/mL and 212 ng/mL | Formula I plasma concentration ([6]; SERT cohort, 10 mg once-a-day, day 14, 24 h): 129 ng/mL and 156 ng/mL | Formula I plasma concentration ([6]; SERT cohort, 30 mg once-a-day, day 10, 4 h): 847 ng/mL and 667 ng/mL | Formula I plasma concentration ([6]; SERT cohort, 30 mg once-a-day, day 14, 24 h): 434 ng/mL and 567 ng/mL | Formula I plasma concentration ([6]; SERT cohort, 45 mg once-a-day, day 10, 4 h): 1191 ng/mL and 1105 ng/mL | Formula I plasma concentration ([6]; SERT cohort, 45 mg once-a-day, day 14, 24 h): 904 ng/mL and 895 ng/mL | Between-patient variability [7]: 20.2% | stable in human EDTA plasma following freeze-thaw cycles [8]: at least 3 freeze- thaw cycles | stable in human EDTA plasma at -20° C. ([8]; -20° C.): at least 14 days | processed samples stable at room temperature ([8]; processed (extracted) samples, room temperature): 72 h | stable in human EDTA plasma at room temperature ([8]; room temperature): at least 24 h

Reference: US20230084144A1, “THERAPEUTIC COMBINATIONS OF DRUGS AND METHODS OF USING THEM” (ConSynance Therapeutics, Inc., priority 2020, published 2023)
